# According to US20240059703A1 (AMGEN INC., priority 2021, published 2024):
# How the values were obtained:
# [1] = molecular target: KRAS G12C (Homo sapiens (Human), UniProt P01116, C118A/G12C); assay: 2 h coupled exchange assay; type: biochemical; details: Avg 2 h Coupled exchange IC50, 2 h compound pre-incubation
# Experimental: The term “2 h coupled exchange assay” or “20 h coupled exchange assay” as used herein refers to the assay described in the Section entitled “BIOLOGICAL EVALUATION.”
# [2] = tested on: MIA PaCa-2 (human pancreatic carcinoma) cells; assay: Cell Viability Assay (CellTiter-Glo), MIA PaCa-2; type: cell-based
# Experimental: Serially-diluted compound or DMSO was added to the cells, and plates were incubated at 37° C., 5% CO2 for 72 h. Cell viability was measured using a CellTiter-Glo® Luminescent Cell Viability Assay kit (Promega) according to the manufacturer's protocol. The luminescence signal of treated samples was normalized to DMSO control, and data were analyzed using a 4-parameter logistic model to calculate IC50 values.
# [3] = tested on: A549 (human lung carcinoma) cells; assay: Cell Viability Assay (CellTiter-Glo), A549; type: cell-based
# Summary of the method: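 Seeding at 1.67E+04 cells/mL is followed by overnight attachment at 37° C., 5% CO2. Serially diluted compound is added for 72 h. Viability is read by CellTiter-Glo luminescence, scaled to DMSO and fitted (4-parameter logistic) to give IC50.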
# Sequence of KRAS G12C (P01116 other isoform, or with tags, fused parts or gaps G12C/C118A): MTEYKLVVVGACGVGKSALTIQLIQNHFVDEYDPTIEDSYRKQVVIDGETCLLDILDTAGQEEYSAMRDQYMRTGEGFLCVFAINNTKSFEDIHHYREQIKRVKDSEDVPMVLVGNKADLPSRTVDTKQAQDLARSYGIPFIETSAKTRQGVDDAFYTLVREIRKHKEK
SMILES,IC50 [1],IC50 ([2]; 72 h),IC50 ([3]; 72 h),"IC50 ([3]; Homo sapiens, A549, 72 h)","IC50 ([2]; Homo sapiens, MIA PaCa-2, 72 h)"
"C=CC(=O)N1CC2(CCN(c3nc4c(c(-c5c(C)ccc6[nH]ncc56)c3C)CCN(C(C)C)C4)C2)C1 (single isomer, unassigned) [Example 18-22, (M)-1-(6-(3-methyl-4-(5-methyl-1H-indazol-4-yl)-7-(2-propanyl)-5,6,7,8-tetrahydro-1,7-naphthyridin-2-yl)-2,6-diazaspiro[3.4]octan-2-yl)-2-propen-1-one]",6.88 µM,0.804 µM,> 20 µM,–,–
"C=CC(=O)N1CC2(CCN(c3nc4cc(-c5scnc5C)ccc4c(-c4c(O)cccc4F)c3C#N)C2)C1 (single isomer, unassigned) [Example 19-4, (P)-4-(2-fluoro-6-hydroxyphenyl)-7-(4-methyl-1,3-thiazol-5-yl)-2-(2-(2-propenoyl)-2,6-diazaspiro[3.4]octan-6-yl)-3-quinolinecarbonitrile]",0.038 µM,0.695 µM,–,> 5 µM,–
"C=CC(=O)N1CC2(CCN(c3nc4cc(-c5scnc5C)ccc4c(-c4ccccc4C)c3C#N)C2)C1 (single isomer, unassigned) [Example 19-11, (P)-4-(2-methylphenyl)-7-(4-methyl-1,3-thiazol-5-yl)-2-(2-(2-propenoyl)-2,6-diazaspiro[3.4]octan-6-yl)-3-quinolinecarbonitrile]",0.068 µM,–,–,> 5 µM,1.35 µM
"C=CC(=O)N1CC2(CCN(c3nc4cc(-c5scnc5C)ccc4c(-c4ccccc4C)c3C#N)C2)C1 (single isomer, unassigned) [Example 19-12, (M)-4-(2-methylphenyl)-7-(4-methyl-1,3-thiazol-5-yl)-2-(2-(2-propenoyl)-2,6-diazaspiro[3.4]octan-6-yl)-3-quinolinecarbonitrile]",0.074 µM,1.4 µM,3.79 µM,–,–
"C=CC(=O)N1CC2(CCN(c3nc4cc(-c5scnc5C)cnc4c(-c4cccc(C)c4C)c3C#N)C2)C1 (single isomer, unassigned) [Example 19-13, (M)-4-(2,3-dimethylphenyl)-7-(4-methyl-1,3-thiazol-5-yl)-2-(2-(2-propenoyl)-2,6-diazaspiro[3.4]octan-6-yl)-1,5-naphthyridine-3-carbonitrile]",0.067 µM,–,–,> 5 µM,0.671 µM
"C=CC(=O)N1CC2(CCN(c3nc4cc(-c5scnc5C)cnc4c(-c4cccc(C)c4C)c3C#N)C2)C1 (single isomer, unassigned) [Example 19-14, (P)-4-(2,3-dimethylphenyl)-7-(4-methyl-1,3-thiazol-5-yl)-2-(2-(2-propenoyl)-2,6-diazaspiro[3.4]octan-6-yl)-1,5-naphthyridine-3-carbonitrile]",0.038 µM,0.366 µM,> 5 µM,–,–
"C=CC(=O)N1CC2(CCN(c3nc4cc(-c5scnc5C)ccc4c(-c4c(O)cccc4F)c3C#N)C2)C1 (single isomer, unassigned) [Example 19-15, (M)-4-(2-fluoro-6-hydroxyphenyl)-7-(4-methyl-1,3-thiazol-5-yl)-2-(2-(2-propenoyl)-2,6-diazaspiro[3.4]octan-6-yl)-3-quinolinecarbonitrile]",2.96 µM,4.56 µM,7.6 µM,–,–
"C=CC(=O)N1CC2(CCN(c3nc4cc(-c5scnc5C)ccc4c(-c4ccccc4Cl)c3C#N)C2)C1 (single isomer, unassigned) [Example 20-3, (M)-4-(2-chlorophenyl)-7-(4-methyl-1,3-thiazol-5-yl)-2-(2-(2-propenoyl)-2,6-diazaspiro[3.4]octan-6-yl)-3-quinolinecarbonitrile]",0.277 µM,2.18 µM,–,> 5 µM,–
"C=CC(=O)N1CC2(CCN(c3nc4cc(-c5scnc5C)ccc4c(-c4ccccc4Cl)c3C#N)C2)C1 (single isomer, unassigned) [Example 20-4, (P)-4-(2-chlorophenyl)-7-(4-methyl-1,3-thiazol-5-yl)-2-(2-(2-propenoyl)-2,6-diazaspiro[3.4]octan-6-yl)-3-quinolinecarbonitrile]",0.069 µM,1.01 µM,> 5 µM,–,–
"C=CC(=O)N1CC2(CCN(c3nc4cc(-c5scnc5C)cnc4c(-c4ccccc4Cl)c3C#N)C2)C1 (single isomer, unassigned) [Example 20-8, (M)-4-(2-chlorophenyl)-7-(4-methyl-1,3-thiazol-5-yl)-2-(2-(2-propenoyl)-2,6-diazaspiro[3.4]octan-6-yl)-1,5-naphthyridine-3-carbonitrile]",0.139 µM,0.974 µM,–,> 5 µM,–
"C=CC(=O)N1CC2(CCN(c3nc4cc(-c5scnc5C)cnc4c(-c4ccccc4Cl)c3C#N)C2)C1 (single isomer, unassigned) [Example 20-9, (P)-4-(2-chlorophenyl)-7-(4-methyl-1,3-thiazol-5-yl)-2-(2-(2-propenoyl)-2,6-diazaspiro[3.4]octan-6-yl)-1,5-naphthyridine-3-carbonitrile]",0.042 µM,0.2 µM,3.19 µM,–,–

# Next, values leading:
IC50 [1],IC50 ([2]; 72 h),IC50 ([3]; 72 h),"IC50 ([3]; Homo sapiens, A549, 72 h)","IC50 ([2]; Homo sapiens, MIA PaCa-2, 72 h)",SMILES
0.034 µM,0.17 µM,–,> 5 µM,–,"C=CC(=O)N1CC2(CCN(c3nc4c(c(-c5ccccc5Cl)c3C#N)CCN(c3scnc3C)C4)C2)C1 (single isomer, unassigned) [Example 21-22, (P)-4-(2-chlorophenyl)-7-(4-methyl-1,3-thiazol-5-yl)-2-(2-(2-propenoyl)-2,6-diazaspiro[3.4]octan-6-yl)-5,6,7,8-tetrahydro-1,7-naphthyridine-3-carbonitrile]"
0.114 µM,0.619 µM,> 5 µM,–,–,"C=CC(=O)N1CC2(CCN(c3nc4c(c(-c5ccccc5Cl)c3C#N)CCN(c3scnc3C)C4)C2)C1 (single isomer, unassigned) [Example 21-23, (M)-4-(2-chlorophenyl)-7-(4-methyl-1,3-thiazol-5-yl)-2-(2-(2-propenoyl)-2,6-diazaspiro[3.4]octan-6-yl)-5,6,7,8-tetrahydro-1,7-naphthyridine-3-carbonitrile]"
0.018 µM,0.297 µM,> 5 µM,–,–,"C=CC(=O)N1CC2(CCN(c3nc4c(c(-c5cc(O)ccc5Cl)c3C#N)CCN(c3scnc3C)C4)C2)C1 (single isomer, unassigned) [Example 21-24, (P)-4-(2-chloro-5-hydroxyphenyl)-7-(4-methyl-1,3-thiazol-5-yl)-2-(2-(2-propenoyl)-2,6-diazaspiro[3.4]octan-6-yl)-5,6,7,8-tetrahydro-1,7-naphthyridine-3-carbonitrile]"
3.26 µM,7.4 µM,13.4 µM,–,–,"C=CC(=O)N1CC2(CCN(c3nc4c(c(-c5cc(O)ccc5Cl)c3C#N)CCN(c3scnc3C)C4)C2)C1 (single isomer, unassigned) [Example 21-25, (M)-4-(2-chloro-5-hydroxyphenyl)-7-(4-methyl-1,3-thiazol-5-yl)-2-(2-(2-propenoyl)-2,6-diazaspiro[3.4]octan-6-yl)-5,6,7,8-tetrahydro-1,7-naphthyridine-3-carbonitrile]"
0.038 µM,–,–,> 5 µM,0.585 µM,"C=CC(=O)N1CC2(CCN(c3nc4c(c(-c5cccc(C)c5C)n3)CC[C@@H](c3scnc3C)C4)C2)C1 (single isomer, unassigned) [Example 22-1]"
0.701 µM,–,–,> 25 µM,5.27 µM,"C=CC(=O)N1CC2(CCN(c3nc4c(c(-c5cccc(C)c5C)n3)CC[C@H](c3scnc3C)C4)C2)C1 (single isomer, unassigned) [Example 22-2]"
0.107 µM,2.52 µM,–,> 5 µM,–,"C=CC(=O)N1CC2(CCN(c3nc4c(c(-c5ccccc5C)c3C#N)CC[C@@H](c3scnc3C)C4)C2)C1 (single isomer, unassigned) [Example 23-3]"
0.019 µM,0.184 µM,–,11 µM,–,"C=CC(=O)N1CC2(CCN(c3nc4c(c(-c5ccccc5C)c3C#N)CC[C@H](c3scnc3C)C4)C2)C1 (single isomer, unassigned) [Example 23-4]"
0.008 µM,0.107 µM,3.79 µM,–,–,"C=CC(=O)N1CC2(CCN(c3nc4c(c(-c5ccccc5C)c3C#N)CC[C@@H](c3scnc3C)C4)C2)C1 (single isomer, unassigned) [Example 23-5]"
0.128 µM,3.42 µM,13 µM,–,–,"C=CC(=O)N1CC2(CCN(c3nc4c(c(-c5ccccc5C)c3C#N)CC[C@H](c3scnc3C)C4)C2)C1 (single isomer, unassigned) [Example 23-6]"
0.092 µM,–,–,3.37 µM,1.08 µM,"C=CC(=O)N1CC2(CCN(c3nc4c(c(-c5ccccc5C)c3C#N)CCC(c3scnc3C)=C4)C2)C1 (single isomer, unassigned) [Example 23-23, (M)-4-(2-methylphenyl)-7-(4-methyl-1,3-thiazol-5-yl)-2-(2-(2-propenoyl)-2,6-diazaspiro[3.4]octan-6-yl)-5,6-dihydro-3-quinolinecarbonitrile]"
0.071 µM,0.705 µM,> 5 µM,–,–,"C=CC(=O)N1CC2(CCN(c3nc4c(c(-c5ccccc5C)c3C#N)CCC(c3scnc3C)=C4)C2)C1 (single isomer, unassigned) [Example 23-24, (P)-4-(2-methylphenyl)-7-(4-methyl-1,3-thiazol-5-yl)-2-(2-(2-propenoyl)-2,6-diazaspiro[3.4]octan-6-yl)-5,6-dihydro-3-quinolinecarbonitrile]"
